Columns and labels:
Myelo = experiment: In vitro toxicity, Myelo
From the text: (§2) Toxicity was asssessed by the methods reported in Toxicology in Vitro, 15 (2001) 571-577, J. Luber Narod et al.: “Evaluation of the use of in vitro methodolodies as tools for screening new compounds for potential in vivo toxicity”.

A-549 = experiment: Inhibition of cells growth by colorimetric assay (SRB), A-549; assay type: cell-based; conditions: A-549, SRB, 48 hours exposure
Procedure, shortened: (§1)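 Cells in RPMI 1640 with 10% FBS were seeded at 5×10^3 per well, allowed 18 h to attach, then exposed to compound (10 to 10^−8 μg/ml, in DMSO/EtOH/PBS 0.5:0.5:99) for 48 h. After TCA fixation and SRB staining, bound dye was solubilized in Tris and OD read at 490 nm; GI, TGI and LC derived from triplicates.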

SK-MEL-28 = experiment: Inhibition of cells growth by colorimetric assay (SRB), SK-MEL-28; assay type: cell-based; conditions: MEL-28, SRB, 48 hours exposure
Procedure, shortened: as §1

IGROV-ET = experiment: Inhibition of cells growth by colorimetric assay (SRB), IGROV-ET; assay type: cell-based; conditions: IGROV-ET, SRB, 48 hours exposure
Procedure, shortened: as §1

LoVo = experiment: Inhibition of cells growth by colorimetric assay (SRB), LoVo; assay type: cell-based; conditions: LOVO, SRB, 48 hours exposure
Procedure, shortened: as §1

Skeletal = experiment: In vitro toxicity, Skeletal
From the text: as §2

DU-145 = experiment: Inhibition of cells growth by colorimetric assay (SRB), DU-145; assay type: cell-based; conditions: DU-145, SRB, 48 hours exposure
Procedure, shortened: as §1

IGROV-1 = experiment: Inhibition of cells growth by colorimetric assay (SRB), IGROV-1; assay type: cell-based; conditions: IGROV, SRB, 48 hours exposure
Procedure, shortened: as §1

SK-BR-3 = experiment: Inhibition of cells growth by colorimetric assay (SRB), SK-BR-3; assay type: cell-based; conditions: SK-BR3, SRB, 48 hours exposure
Procedure, shortened: as §1

LNCaP = experiment: Inhibition of cells growth by colorimetric assay (SRB), LNCaP; assay type: cell-based; conditions: LNCAP, SRB, 48 hours exposure
Procedure, shortened: as §1

SK-OV-3 = experiment: Inhibition of cells growth by colorimetric assay (SRB), SK-OV-3; assay type: cell-based; conditions: SK-OV3, SRB, 48 hours exposure
Procedure, shortened: as §1

Kidney = experiment: In vitro toxicity, Kidney
From the text: as §2

K-562 = experiment: Inhibition of cells growth by colorimetric assay (SRB), K-562; assay type: cell-based; conditions: K-562, SRB, 48 hours exposure
Procedure, shortened: as §1

LoVo-Dox = experiment: Inhibition of cells growth by colorimetric assay (SRB), LoVo-Dox; assay type: cell-based; conditions: LOVO-DOX, SRB, 48 hours exposure
Procedure, shortened: as §1

HT-29 = experiment: Inhibition of cells growth by colorimetric assay (SRB), HT-29; assay type: cell-based; conditions: HT-29, SRB, 48 hours exposure
Procedure, shortened: as §1

Liver = experiment: In vitro toxicity, Liver
From the text: as §2

HMEC1 = experiment: Inhibition of cells growth by colorimetric assay (SRB), HMEC1; assay type: cell-based; conditions: HMEC-1, SRB, 48 hours exposure
Procedure, shortened: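 Using sulforhodamine B, cell growth and viability are quantified after a 48 h drug exposure of cells maintained in RPMI 1640/10% FBS at 37 °C, 5% CO2. Concentrations span 10 to 10^−8 μg/ml; optical density is read at 490 nm.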

Heart = experiment: In vitro toxicity, Heart
From the text: as §2

PANC-1 = experiment: Inhibition of cells growth by colorimetric assay (SRB), PANC-1; assay type: cell-based; conditions: PANC-1, SRB, 48 hours exposure
Procedure, shortened: as §1

## C=COC(=O)Oc1cc2c(cc1OC)[C@@]1(CS[C@@H]3c4c(OC(C)=O)c(C)c5c(c4[C@H](COC1=O)N1C3[C@H]3c4c(cc(C)c(OC)c4O)C[C@@H]([C@@H]1O)N3C)OCO5)NCC2 (some centres unmarked) [Compound 75]
Myelo
  Toxicity Data Myelo: 5.85E-08
A-549
  TGI A-549: 8.23E-09
A-549; read-out: GI50 A-549
  GI50: 4.26 nM
A-549; read-out: LC50 A-549
  LC50 (50% lethal concentration): 49 nM
SK-MEL-28
  LC50 (concentration killing 50% of cells): 11.7 nM
  TGI MEL-28: 4.82E-09
SK-MEL-28; read-out: GI50 MEL-28
  GI50: 2 nM
IGROV-ET
  TGI IGROV-ET: 6.58E-09
IGROV-ET; read-out: GI50 IGROV-ET
  GI50: 3.38 nM
IGROV-ET; read-out: LC50 IGROV-ET
  CC50: 12 nM
LoVo
  LC50 (concentration killing 50% of cells): 12 nM
  TGI LOVO: 4.82E-09
LoVo; read-out: GI50 LOVO
  GI50: 2.25 nM
Skeletal
  Toxicity Data Skeletal: 4.06E-09
DU-145
  TGI DU-145: 9.47E-10
DU-145; read-out: GI50 DU-145
  GI50: 0.563 nM
DU-145; read-out: LC50 DU-145
  CC50: 8330 nM
IGROV-1
  TGI IGROV: 1.63E-09
IGROV-1; read-out: GI50 IGROV
  GI50: 0.52 nM
IGROV-1; read-out: LC50 IGROV
  CC50: 10 nM
SK-BR-3
  TGI SK-BR3: 3.21E-09
SK-BR-3; read-out: GI50 SK-BR3
  GI50: 1.2 nM
SK-BR-3; read-out: LC50 SK-BR3
  CC50: 8.58 nM
LNCaP
  TGI LNCAP: 8.31E-10
LNCaP; read-out: GI50 LNCAP
  GI50: 0.579 nM
LNCaP; read-out: LC50 LNCAP
  CC50: 1.19 nM
SK-OV-3
  TGI SK-OV3: 1.04E-08
SK-OV-3; read-out: GI50 SK-OV3
  GI50: 2.19 nM
Kidney
  Toxicity Data Kidney: 3.86E-08
K-562
  LC50 (50% lethal concentration): 4.16 nM
  TGI K-562: 7.42E-10
K-562; read-out: GI50 K-562
  GI50: 0.364 nM
LoVo-Dox
  TGI LOVO-DOX: 1.23E-07
LoVo-Dox; read-out: GI50 LOVO-DOX
  GI50: 42.6 nM
HT-29
  TGI HT-29: 1.18E-08
HT-29; read-out: GI50 HT-29
  GI50: 3.89 nM
HT-29; read-out: LC50 HT-29
  CC50: 120 nM
Liver
  Toxicity Data Liver: 4.11E-08
HMEC1
  TGI HMEC-1: 5.77E-08
HMEC1; read-out: GI50 HMEC-1
  GI50: 6.97 nM
Heart
  Toxicity Data Heart: 8.17E-08
PANC-1
  LC50 (concentration killing 50% of cells): 35.9 nM
  TGI PANC-1: 8.45E-09
PANC-1; read-out: GI50 PANC-1
  GI50: 3.04 nM

Reference: patent US7759345B2, “Antitumoral derivatives of ET-743” (priority 2001, dated 2010)
